Tests used:
Format in all cases: in vivo
[1] = test system: ryegrass, Italian (Italian ryegrass, Lolium multiflorum); experiment: Test A preemergence
In short: (§1)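 Treatment is preemergence as a directed soil spray after planting, or postemergence at the one- to two-leaf stage, with test chemical in a non-phytotoxic solvent mixture plus surfactant. Plants stay in the greenhouse about 10 d before visual injury scoring on a 0 to 100 scale versus untreated controls.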

[2] = test system: ragweed (common ragweed, Ambrosia elatior); experiment: Test A preemergence; details: 125 g ai/ha, preemergence; 0 to 100 scale (0 no effect, 100 complete control)
In short: as §1

[3] = test system: giant foxtail (Setaria faberii); experiment: Test A preemergence
In short: as §1

[4] = test system: pigweed (Amaranthus retroflexus); experiment: Test A preemergence
[5] = test system: barnyardgrass (Echinochloa crus-galli); experiment: Test A preemergence
In short: as §1

Kochia (Kochia scoparia) [6] = experiment: Test A preemergence
In short: as §1

[7] = test system: ryegrass, Italian (Italian ryegrass, Lolium multiflorum); experiment: Test A postemergence; details: postemergence
In short: as §1

[8] = test system: Galium (catchweed bedstraw, Galium aparine); experiment: Test A postemergence; details: postemergence
In short: as §1

[9] = test system: ragweed (common ragweed, Ambrosia elatior); experiment: Test A postemergence; details: postemergence
In short: as §1

[10] = test system: giant foxtail (Setaria faberii); experiment: Test A postemergence; details: postemergence
In short: as §1

corn (Zea mays) = experiment: Test A postemergence; details: postemergence
In short: as §1

[11] = test system: wheat (Triticum aestivum); experiment: Test A postemergence; details: postemergence
In short: as §1

[12] = test system: pigweed (Amaranthus retroflexus); experiment: Test A postemergence; details: postemergence
In short: as §1

[13] = test system: barnyardgrass (Echinochloa crus-galli); experiment: Test A postemergence
In short: as §1

[14] = test system: blackgrass (Alopecurus myosuroides); experiment: Test A postemergence
In short: as §1

Kochia (Kochia scoparia) [15] = experiment: Test A postemergence; details: postemergence
In short: as §1

[16] = test system: sedge, umbrella (small-flower umbrella sedge, Cyperus difformis); experiment: Test B flooded paddy test; details: Flood, 500 g ai/ha; 0 to 100 scale where 0 is no effect and 100 is complete control; 13 to 15 d
In short: (§2)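 Compound goes directly into floodwater once pots are flooded 3 cm above soil, targeting plants at two leaves; the water depth is then held for the test duration. Plants sit 13–15 d in a greenhouse and are rated visually, 100 denoting complete control.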

[17] = test system: ducksalad (Heteranthera limosa); experiment: Test B flooded paddy test; details: Flood, 500 g ai/ha; 0 to 100 scale where 0 is no effect and 100 is complete control; 13 to 15 d
In short: as §2

[18] = test system: barnyardgrass (Echinochloa crus-galli); experiment: Test B flooded paddy test; details: Flood, 500 g ai/ha; 0 to 100 scale where 0 is no effect and 100 is complete control; 13 to 15 d
In short: as §2

rice (Oryra sativa) = experiment: Test B flooded paddy test; details: Flood, 500 g ai/ha; 0 to 100 scale where 0 is no effect and 100 is complete control; 13 to 15 d
In short: as §2

[19] = 125 g ai/ha, preemergence, 0 to 100 scale (0 no effect, 100 complete control)
[20] = Preemergence, 500 g ai/ha, 0 is no effect, 100 is complete control
[21] = 125 g ai/ha, visual injury rating on 0 to 100 scale (0 no effect, 100 complete control), approx. 10 d
[22] = 500 g ai/ha, 0 to 100 scale, 0 no effect, 100 complete control
[23] = 500 g ai/ha, postemergence, 0 to 100 scale, 0 no effect, 100 complete control
[24] = Postemergence, 125 g ai/ha, visual injury, 0 to 100 scale (0 no effect, 100 complete control), approx. 10 d

For `COc1c(F)ccc(NC(=O)C2C(=O)NCC2c2cccc(C(F)(F)F)c2)c1F` (racemic) [Compound 386], the “Plant response rating, Ryegrass, Italian” value [1, 19] was 30, the “Ryegrass, Italian plant response rating (0 to 100 scale)” value [1, 20] was 50 and the “Plant response rating, Ragweed” value [2] was 0. For the same compound, the “Plant response rating, Foxtail, Giant” value [3, 19] was 80, the “Foxtail, Giant plant response rating (0 to 100 scale)” value [3, 20] was 90 and the “Plant response rating, Pigweed” value [4, 19] was 0. For the same compound, the “Pigweed plant response rating (0 to 100 scale)” value [4, 20] was 0, the “Plant response rating, Barnyardgrass” value [5, 19] was 80 and the “Barnyardgrass plant response rating (0 to 100 scale)” value [5, 20] was 80. The “Plant response rating, Kochia” value (Kochia (Kochia scoparia) [6]; [19]) was 0, the “Kochia plant response rating (0 to 100 scale)” value (Kochia (Kochia scoparia) [6]; [20]) was 0 and the “Ryegrass, Italian plant response rating” value [7, 21] was 20. The “Plant response rating, Ryegrass, Italian” value [7, 22] was 50, the “Galium plant response rating” value [8, 21] was 50 and the “Plant response rating, Galium” value [8, 22] was 60. For the same compound, the “Ragweed plant response rating” value [9, 21] was 0, the “Plant response rating, Ragweed” value [9, 22] was 30 and the “Foxtail, Giant plant response rating” value [10, 21] was 70. For the same compound, the “Plant response rating, Foxtail, Giant” value [10, 22] was 80, the “Corn plant response rating” value (corn (Zea mays); [21]) was 40 and the “Plant response rating, Corn” value (corn (Zea mays); [22]) was 80. For the same compound, the “Wheat plant response rating” value [11, 21] was 30, the “Plant response rating, Wheat” value [11, 22] was 50 and the “Pigweed plant response rating” value [12, 21] was 0. The “Plant response rating, Pigweed” value [12, 22] was 10, the “Plant response rating, Barnyardgrass” value [13, 23] was 80 and the “Plant response rating, Barnyardgrass” value [13, 24] was 70. For the same compound, the “Plant response rating, Blackgrass” value [14, 23] was 70, the “Plant response rating, Blackgrass” value [14, 24] was 50 and the “Kochia plant response rating” value (Kochia (Kochia scoparia) [15]; [21]) was 0. For the same compound, the “Plant response rating, Kochia” value (Kochia (Kochia scoparia) [15]; [22]) was 0, the “Plant response rating, Sedge, Umbrella” value [16] was 0 and the “Plant response rating, Ducksalad” value [17] was 70. For the same compound, the “Plant response rating, Barnyardgrass” value [18] was 60 and the “Plant response rating, Rice” value (rice (Oryra sativa)) was 15.

From patent publication US12077503B2, “Substituted cyclic amides and their use as herbicides” (FMC CORPORATION, priority 2015, dated 2024)
